Data from ChEMBL document CHEMBL5038652, “Structural Rigidification of N-Aryl-pyrroles into Indoles Active against Intracellular and Drug-Resistant Mycobacteria” (ACS Med Chem Lett, 2022).
Values after ≈ are worked out from the molar mass of the structure shown.

What was measured:
[1] = test system: Mycobacterium tuberculosis; test: Antimycobacterial activity against Mycobacterium tuberculosis H37Rv assessed as reduction in bacterial growth incubated for 7 days by resazurin dye based assay; assay type: functional; conditions: 168 h, time 7 day
[2] = Selectivity index, ratio of IC50 for mouse J774.A1 cells to MIC for Mycobacterium tuberculosis H37Rv; assay type: toxicity; conditions: read-out: Selectivity Index
[3] = Cytotoxicity against mouse J774.A1 cells assessed as reduction in cell viability after 24 hrs by resazurin dye based assay; assay type: toxicity
[4] = test system: Mycobacterium tuberculosis; test: Antimycobacterial activity against Mycobacterium tuberculosis H37Rv clinical isolates 1 assessed as reduction in bacterial growth incubated for 7 days by resazurin dye based assay; assay type: functional; conditions: 168 h, time 7 day
[5] = test system: Mycobacterium tuberculosis; test: Antimycobacterial activity against Mycobacterium tuberculosis H37Rv clinical isolates 4 assessed as reduction in bacterial growth incubated for 7 days by resazurin dye based assay; assay type: functional; conditions: 168 h, time 7 day
[6] = test system: Mycobacterium tuberculosis; test: Antimycobacterial activity against Mycobacterium tuberculosis H37Rv clinical isolates 3 assessed as reduction in bacterial growth incubated for 7 days by resazurin dye based assay; assay type: functional; conditions: 168 h, time 7 day
[7] = test system: Mycobacterium tuberculosis; test: Antimycobacterial activity against Mycobacterium tuberculosis H37Rv clinical isolates 2 assessed as reduction in bacterial growth incubated for 7 days by resazurin dye based assay; assay type: functional; conditions: 168 h, time 7 day
[8] = test system: Mycobacterium tuberculosis; test: Antimycobacterial activity against Mycobacterium tuberculosis H37Rv infected in mouse J774.A1 cells assessed as log reduction of bacterial growth at 1X MIC measured after 3 days by visual colony counting analysis; assay type: functional; conditions: time 3 day

Compound	MIC [1] [µg/mL]	also measured
c1ccc2c(CNC3CCCCCC3)c[nH]c2c1	> 25	
Cc1cc(CNC2CCCCC2)c(C)n1-c1ccc(Cl)cc1	0.2 (≈ 0.631 µM)	
Cc1cc(CNCC2CCCCC2)c(C)n1-c1ccc(Cl)cc1	0.3 (≈ 0.907 µM)	
Cc1ccc2[nH]cc(CNC3CCCCC3)c2c1	> 25	
CC(C)=CCC/C=C(\C)Cn1cc(CNC2CCCCCC2)c2ccc(Cl)cc21	2.75 (≈ 6.66 µM)	
Clc1ccc2[nH]cc(CNC3CCCCC3)c2c1	16.3 (≈ 62.1 µM)	
Clc1ccc2c(CNCc3ccccc3)c[nH]c2c1	22.8 (≈ 84.3 µM)	
Clc1ccc2c(CNCc3ccccc3)cn(C3CCCCCCC3)c2c1	19.7 (≈ 51.8 µM)	
Clc1ccc2c(CNC3CCCCCC3)c[nH]c2c1	17.1 (≈ 61.9 µM)	
Cn1cc(CNC2CCCCC2)c2ccc(Cl)cc21	> 25	
Clc1ccc2c(CNC3CCCCC3)c[nH]c2c1	> 25	
CC(C)n1cc(CNCC2CCCCC2)c2ccc(Cl)cc21	6.09 (≈ 19.1 µM)	selectivity ratio [2]: 2.39; IC50 at 24 h [3]: 14.6 µg/mL (≈ 45.7 µM)
CC(C)n1cc(CNC2CCCCCCC2)c2ccc(Cl)cc21	14 (≈ 42.1 µM)	
Clc1ccc2c(CNCC3CCCCC3)c[nH]c2c1	24.2 (≈ 87.4 µM)	
c1ccc2c(CNC3CCCCCCC3)c[nH]c2c1	> 25	
Cn1cc(CNCC2CCCCC2)c2ccc(Cl)cc21	19.1 (≈ 65.6 µM)	
CC(C)n1cc(CNC2CCCCC2)c2ccc(Cl)cc21	23.9 (≈ 78.3 µM)	
CC(C)n1cc(CNC2CCCCCC2)c2ccc(Cl)cc21	16.3 (≈ 51.2 µM)	
Cn1cc(CNCc2ccccc2)c2ccc(Cl)cc21	> 25	
Clc1ccc2c(CNCC3CCCCC3)cn(C3CCCCCCC3)c2c1	1.56 (≈ 4.03 µM)	
Cc1ccc2[nH]cc(CNC3CCCCCC3)c2c1	24.7 (≈ 96.4 µM)	
Clc1ccc2c(CNC3C4CC5CC(C4)CC3C5)c[nH]c2c1 (stereo not given)	6.07 (≈ 19.3 µM)	selectivity ratio [2]: 1.24; IC50 at 24 h [3]: 7.51 µg/mL (≈ 23.9 µM)
Cn1cc(CNC2C3CC4CC(C3)CC2C4)c2ccc(Cl)cc21 (stereo not given)	10.9 (≈ 33.2 µM)	selectivity ratio [2]: 1.48; IC50 at 24 h [3]: 16.2 µg/mL (≈ 49.2 µM)
c1ccc2c(CNCC3CCCCC3)c[nH]c2c1	> 25	
Clc1ccc2c(CNC3CCCCCCC3)c[nH]c2c1	> 25	
Cn1cc(CNC2CCCCCCC2)c2ccc(Cl)cc21	23.2 (≈ 76.3 µM)	
NCC[C@H](O)C(=O)N[C@@H]1C[C@H](N)[C@@H](O[C@H]2O[C@H](CN)[C@@H](O)[C@H](O)[C@H]2O)[C@H](O)[C@H]1O[C@H]1O[C@H](CO)[C@@H](O)[C@H](N)[C@H]1O [AMIKACIN]		MIC [4]: 0.32 µg/mL (≈ 0.546 µM); MIC [5]: 0.14 µg/mL (≈ 0.239 µM); MIC [6]: > 25 µg/mL; MIC [7]: 23.1 µg/mL (≈ 39.5 µM)
NNC(=O)c1ccncc1 [ISONIAZID]		MIC [4]: > 25 µg/mL; MIC [5]: 0.25 µg/mL (≈ 1.82 µM); MIC [6]: > 25 µg/mL; MIC [7]: > 25 µg/mL
COc1c(N2C[C@@H]3CCCN[C@@H]3C2)c(F)cc2c(=O)c(C(=O)O)cn(C3CC3)c12 [MOXIFLOXACIN]		Activity [8]: 0.11 log10CFU
CO[C@H]1/C=C/O[C@@]2(C)Oc3c(C)c(O)c4c(O)c(c(/C=N/N5CCN(C)CC5)c(O)c4c3C2=O)NC(=O)/C(C)=C\C=C\[C@H](C)[C@H](O)[C@@H](C)[C@@H](O)[C@@H](C)[C@H](OC(C)=O)[C@@H]1C [RIFAMPIN]		MIC [4]: > 25 µg/mL; MIC [5]: < 0.1 µg/mL; MIC [6]: > 25 µg/mL; MIC [7]: 0.65 µg/mL (≈ 0.79 µM)
